# Assay results taken from US11534457B2, “Use of dextran sulfate” (priority 2017, dated 2022).
# Test system: human Schwann cells
# Experiment: Gene expression array and pathway analysis, Schwann cells
# Assay type: cell-based
# Description: For each cell line, n=8×25 cm^2 culture flasks were set up. Two flasks were harvested for each cell type on the day of treatment (24 hours after seeding). This represents the Day0 time point. From the remaining flasks, three flasks were treated with Control Medium and three were treated with Culture Medium (CM) containing LMW-DS to give a final concentration of 0.01 mg/ml. Cells from the treated flasks were collected after 48 hours. Therefore the collected data represent (a) untreated cells (Day0 Controls and Day2 Controls) and (b) cells treated with LMW-DS for 48 hours (Day2 LMW-DS treated).
# 25 cm^2 flasks were coated by adding 2 ml per flask of a solution of 50 μg/ml poly-d-lysine in Hank's balanced salt solution (HBSS) and incubating overnight at 37° C. in the dark. Flasks were washed with cell culture water and air-dried for 30 min in the dark. Flasks were coated by adding 1 ml per flask of a solution of 25 μg/ml laminin in phosphate-buffered saline (PBS) and incubating for 2 hour at 37° C. in the dark. The laminin flasks were washed with PBS three times before plating cells.
# Schwann cells growth medium was prepared by adding 10% of fetal bovine serum (FBS) to high-glucose DMEM and pre-warmed to 37° C. Cells were thawed in a 37° C. water bath for no longer than 2 min.
# Cells from 12 vials were each gently transferred to a tube containing 10 ml of high-glucose DMEM medium and centrifuged at 400 relative centrifugal field (RCF) for 10 min. Pellet was resuspended in culture medium. The cells from the 12 vials were mixed and distributed equally into the previously coated 25 cm^2 flasks (n=8). Cells were incubated at 37° C. with 5% CO2. Cells were allowed to settle for 24 hours before LMW-DS treatment.
# LMW-DS was provided at a stock concentration of 20 mg/ml and was kept in a temperature monitored refrigerator at 4° C. A fresh […]LMW-DS stock (1.0 mg/ml) was prepared in sterile DMEM-F12. The concentrated drug stock was sterile filtered and added to the respective culture media (19.6 ml CM and 0.4 ml LMW-DS stock solution). The Control was made using 19.6 ml CM and 0.4 ml of DMEM-F12. LMW-DS and CM were added to the respective flasks (5 ml each) to reach the 0.01 mg/ml concentration of LMW-DS in each dish with a total of 10 ml CM each.
# CM was aspirated into a clean and labelled 15 ml Falcon tube. The flasks (without culture medium) were placed into the −80° C. freezer for 30 minutes. The CM in the Falcon tubes were spun at 3000×g for 5 minutes. Supernatant was removed and the small pellet was re-suspended in 2.5 ml Trizol:Water (4:1) solution at room temperature (RT, […]).
# Two aliquots of 1 ml lysate was removed from each sample and 200 μl of chloroform was added to each (0.2 ml of chloroform per 1 ml of TRIzol Reagent used during the cell lysis step) and the tube was shaken vigorously. Samples were stored at RT for 2-3 minutes and subsequently centrifuged at 12,000×g for 15 minutes at 4° C.
# The expression data were downloaded into separate files for each cell line. The ‘Background corrected’ expression is the data from the “gProcessedSignal” of the arrays that is the result of the background signal extracted from the actual signal of the relevant probe. This is the most often used variable in array analysis. The background corrected signal was log 2 transformed for all samples for statistical analysis. To reduce the false discovery rate in the samples, the signals that were below ‘expression level’ were removed. The ‘below expression’ level was set at 5 for the log 2 transformed expression values.
# Based on the expression pattern of the Control probes on each array it was decided to carry out Median Centering for all arrays before analysis to reduce the variability of the results. […]
substance,measurement,setting,value
low molecular weight dextran sulfate [LMW-DS],"Complex III (cytochrome bc1), mitochondrial oxidative stress pathway","0.01 mg/ml, 48 h",inhibited
same,"TGFβ-induced effect in adhesion of immune cells, activation and aggregation of cells, fibrosis, self-activation of TGFβ","0.01 mg/ml, 48 h",totally abolished
same,"activity and/or levels of glutamate transporters, in particular SLC1A2/3","0.01 mg/ml, 48 h",increased
same,aggregate effect on pathways regulating cell movement and attachment (17 molecules),"0.01 mg/ml, 48 h",cell adhesion would be inhibited while cell movement would be activated
same,cellular attachment from attachment-related molecules (17 differentially expressed),"0.01 mg/ml, 48 h",overall slightly increased attachment
same,"expression of protein complex (CALM, Gβγ, GRM7, PICK1)","0.01 mg/ml, 48 h",induced the expression
same,"number of genes differentially expressed, D0 control vs D2 LMW-DS treated","0.01 mg/ml, 48 h",1244 genes
same,"number of genes differentially expressed, D2 control vs D2 LMW-DS treated","0.01 mg/ml, 48 h",700 genes
same,number of genes: abolished nutrient effect / no effect,"0.01 mg/ml, 48 h",21
same,number of genes: abolished nutrient effect / significant downregulation,"0.01 mg/ml, 48 h",1
same,number of genes: abolished nutrient effect / significant upregulation,"0.01 mg/ml, 48 h",13
same,number of genes: abolished nutrient effect / total,"0.01 mg/ml, 48 h",35
same,number of genes: enhanced response to nutrients / significant downregulation,"0.01 mg/ml, 48 h",122
same,number of genes: enhanced response to nutrients / significant upregulation,"0.01 mg/ml, 48 h",441
same,number of genes: enhanced response to nutrients / total,"0.01 mg/ml, 48 h",563
same,number of genes: new effect induced by LMW-DS / significant downregulation,"0.01 mg/ml, 48 h",352
same,number of genes: new effect induced by LMW-DS / significant upregulation,"0.01 mg/ml, 48 h",74
same,number of genes: new effect induced by LMW-DS / total,"0.01 mg/ml, 48 h",426
same,number of genes: not different from control / significant downregulation,"0.01 mg/ml, 48 h",42
same,number of genes: not different from control / significant upregulation,"0.01 mg/ml, 48 h",373
same,number of genes: not different from control / total,"0.01 mg/ml, 48 h",415
same,number of genes: total / no effect,"0.01 mg/ml, 48 h",21
same,number of genes: total / significant downregulation,"0.01 mg/ml, 48 h",517
same,number of genes: total / significant upregulation,"0.01 mg/ml, 48 h",901
same,number of genes: total / total,"0.01 mg/ml, 48 h",1439
same,upstream regulator ANGPT2: activation z-score,D2 LMW-DS treatment,1.283
same,upstream regulator ANGPT2: predicted activation state relative D2 control,D2 LMW-DS treatment,Activated
same,upstream regulator BMP2: activation z-score,D2 LMW-DS treatment,1.395
same,upstream regulator BMP2: predicted activation state relative D2 control,D2 LMW-DS treatment,Activated
same,upstream regulator BMP4: activation z-score,D2 LMW-DS treatment,0.927
same,upstream regulator BMP4: predicted activation state relative D2 control,D2 LMW-DS treatment,Activated
same,upstream regulator BMP7: activation z-score,D2 LMW-DS treatment,1.86
same,upstream regulator BMP7: predicted activation state relative D2 control,D2 LMW-DS treatment,Activated
same,upstream regulator EGF: activation z-score,D2 LMW-DS treatment,2.059
same,upstream regulator EGF: predicted activation state relative D2 control,D2 LMW-DS treatment,Activated
same,upstream regulator FGF2: activation z-score,D2 LMW-DS treatment,2.37
same,upstream regulator FGF2: predicted activation state relative D2 control,D2 LMW-DS treatment,Activated
same,upstream regulator GDF2: activation z-score,D2 LMW-DS treatment,2.561
same,upstream regulator GDF2: predicted activation state relative D2 control,D2 LMW-DS treatment,Activated
same,upstream regulator HGF: activation z-score,D2 LMW-DS treatment,1.432
same,upstream regulator HGF: predicted activation state relative D2 control,D2 LMW-DS treatment,Activated
same,upstream regulator IGF1: activation z-score,D2 LMW-DS treatment,1.332
same,upstream regulator IGF1: predicted activation state relative D2 control,D2 LMW-DS treatment,Activated
same,upstream regulator NRG1: activation z-score,D2 LMW-DS treatment,1.768
same,upstream regulator NRG1: predicted activation state relative D2 control,D2 LMW-DS treatment,Activated
same,upstream regulator NRTN: activation z-score,D2 LMW-DS treatment,0.958
same,upstream regulator NRTN: predicted activation state relative D2 control,D2 LMW-DS treatment,Activated
same,upstream regulator PGF: activation z-score,D2 LMW-DS treatment,0.254
same,upstream regulator PGF: predicted activation state relative D2 control,D2 LMW-DS treatment,Activated
same,upstream regulator TGFβ1: activation z-score,D2 LMW-DS treatment,1.05
same,upstream regulator TGFβ1: predicted activation state relative D2 control,D2 LMW-DS treatment,Less inhibited
same,upstream regulator VEGFA: activation z-score,D2 LMW-DS treatment,3.4
same,upstream regulator VEGFA: predicted activation state relative D2 control,D2 LMW-DS treatment,Activated
same,upstream regulator WISP2: activation z-score,D2 LMW-DS treatment,-0.896
same,upstream regulator WISP2: predicted activation state relative D2 control,D2 LMW-DS treatment,Less inhibited
